# Measurements reported in paper PMC6272905, “In Vitro and In Vivo Characterization of Selected Fluorine-18 Labeled Radioligands for PET Imaging of the Dopamine D3 Receptor” (Molecules, 2016).
# Experiments:
# [1] = Binding to proteins in human plasma in vitro; assay type: in vitro ADME; details: human vs rat plasma
# Description: The free fraction in vitro was determined by adding the respective radioligand (100 kBq) to plasma or CSF (200 µL) and mixed vigorously. Aliquots of 20–50 µL were transferred to size exclusion chromatography columns (MicroSpin G-50; GE Healthcare GmbH, Solingen, Germany, centrifuged for two min at 2000 rpm, and the radioactivity in the filtrate and in the resin were measured in the gamma-counter. Three independent experiments were performed in triplicates.
# [2] = In vivo stability in blood of living rats (radiometabolites); parameters: species or system rat
# Description: For the determination of radioligand stability in vivo and detection of radiometabolites the respective radiotracer (15 MBq) was administered intravenous to male Sprague Dawley rats (200–250 g) under isoflurane anesthesia. Blood samples were drawn intravenous after 5, 15 and 30 min and centrifuged for 5 min at 2000 rpm in heparin-coated vials. An aliquot of 50 µL was taken from the supernatant and added to an equal volume of water (10% TFA). The protein precipitate was centrifuged off for 5 min at 25,000 rpm and an aliquot of the supernatant was fractioned with HPLC (Chromolith RP-18e, 100 mm × 4.6 mm, 4 mL/min, solvent A: water (0.1% TFA), solvent B: acetonitrile (0.1% TFA), gradient A/B: 90:10 to 0:100 in 15 min, λ = 214 nm). The fractions were then analyzed in the gamma-counter. To identify the fractions containing the intact radioligand, the retention time and fractioning of the respective tracer was previously assessed. Two independent experiments were performed.
# dopamine D3 receptor [3] = assay: Dynamic small-animal PET recordings; assay type: in vivo; details: rat
# Description: Small-animal PET imaging studies were conducted with male Sprague Dawleys rats (250–300 g) on a Inveon microPET scanner (Siemens Healthcare, Erlangen, Germany) under isoflurane (3%) anesthesia. After intravenous injection of [^18F]2b (10–15 MBq), dynamic emission recordings consisting of 13 frames of duration increasing from 30 s to 10 min were acquired to a total of 60 min. For displacement studies BP897 (1 mg/kg) was administered 30 min prior to radioligand injection. Dynamic emission images were corrected for attenuation and decay, and reconstructed by the iterative maximum a posteriori estimation, using software installed in the Inveon PET for dead time and random correction. The dynamic PET scan was then evaluated using the software Amide. The regions of interest were evaluated voxel based and the mean activity in %ID/g of each frame calculated.
# dopamine D3 receptor [4] = assay: Ex vivo autoradiography of rat brain sections; assay type: in vivo
# Description: Male Sprague Dawley rats (250–300 g) were injected with 20 MBq of [^18F]2b intra-venous under isoflurane (4%) anesthesia. For blocking studies BP897 (1 mg/kg) was administerd 30 min prior to radioligand injection. Rats were sacrificed by decapitation 30 min post radioligand injection and brains were removed and frozen in cooled hexane at −70 °C. Coronal and horizontal brain sections (12 µm) were cut on a cryostat microtome (HM550, Microm) and thaw-mounted on covered glass slides (Histobond®). The glass slides were placed on a phosphor screen (Fujitsu) over night. The screens were analyzed with a DUERR Medical HD-CR 35 Bio (Raytest) and evaluated using the software AIDA image analyzer (Raytest). Afterwards the sections were HE stained and ascribed to figures in the rat brain atlas. Binding in the regions of interest were evaluated as ratio of the activity in the region of interest through background activity. Binding in the cerebral matter of the respective sections was defined as background activity.
# [5] = lateral ventricle, coronal section (Interaural 4.70, Bregma −4.30)
# [6] = third ventricle, horizontal section (Interaural 5.90, Bregma −4.10)
smiles,measurement,setting,value
COc1ccccc1N1CCN(CCCCNC(=O)/N=N/c2ccc([18F])cc2)CC1 [[^18F]2b],binding to human plasma higher than in rat plasma,[1],20%–30%
same,intact tracer in rat plasma,[2]; 5 min after i.v. injection,49%
same,intact tracer in rat plasma,[2]; 30 min after i.v. injection,37%
same,uptake in the third and lateral ventricle,dopamine D3 receptor [3],approximately 0.25 %ID/g
same,uptake in the pituitary gland,dopamine D3 receptor [3]; 30 min p.i.,0.8 %ID/g
same,blocking of fourth ventricle uptake with BP897,dopamine D3 receptor [3]; BP897 1 mg/kg,50%
same,decrease of initial and mean pituitary gland uptake by blocking with BP897,dopamine D3 receptor [3]; BP897 1 mg/kg,35%
same,uptake in the pituitary gland,dopamine D3 receptor [3]; after approximately 5 min,0.94 %ID/g
same,maximum uptake in the cerebral matter,dopamine D3 receptor [3]; at 65 s post intravenous injection,0.14 %ID/g
same,uptake in the pituitary gland,dopamine D3 receptor [3]; end of the recording,0.76 %ID/g
same,uptake in the fourth ventricle,"dopamine D3 receptor [3]; initial uptake, constant over the 60 min of recording",0.4 %ID/g
same,uptake in the cerebral matter after wash-out,dopamine D3 receptor [3]; over the 60 min of recording,0.07 %ID/g
same,ratio ROI/background,"dopamine D3 receptor [4]; lateral and third ventricle, section (Interaural 5.70, Bregma −3.30)",22
same,displacement by BP897,"dopamine D3 receptor [4]; lateral and third ventricle, sections (Interaural 10.60, Bregma 1.60) and (Interaural 7.70, Bregma −1.30)",no displacement
same,ratio ROI/background,"dopamine D3 receptor [4]; lateral and third ventricle, sections (Interaural 10.60, Bregma 1.60) and (Interaural 7.70, Bregma −1.30), 30 min p.i.",~15
same,displacement with BP897,dopamine D3 receptor [4]; [5],60%
same,ratio ROI/background,dopamine D3 receptor [4]; [5],~30
same,displacement by BP897,"dopamine D3 receptor [4]; section (Interaural 5.70, Bregma −3.30)",40%–50%
same,displacement through BP897,dopamine D3 receptor [4]; [6],50%
same,ratio ROI/background,dopamine D3 receptor [4]; [6],32
